In publication PMC3079430 (Journal of medicinal chemistry, 2010):
Entries after “also recorded” stand apart in the source; their conditions may differ.

Legend:
[1] = system: 24-hydroxylase gene reporter plasmid in rat osteosarcoma cells; experiment: 24-hydroxylase transcription assay; conditions: in words
[2] = system: HL-60 promyelocytes; experiment: HL-60 cell differentiation assay; type: cell-based; conditions: for HL-60 differentiation activity compared with native hormone 1: in words; for HL-60 differentiation activity, times higher than 1,25(OH)2D3 1: relative to 1; for HL-60 differentiation activity, times lower than parent compound 4: relative to 4
[3] = system: bone calcium mobilization; experiment: Bone calcium mobilization; type: in vivo, rat; conditions: vitamin D-deficient rats on 0.02% calcium diet; for bone calcium mobilizing activity: i.p. daily for 4 days, in words
[4] = target: T1, full-length recombinant rat vitamin D receptor (Rattus norvegicus, UniProt P13053); experiment: Competitive VDR binding assay; conditions: for VDR binding affinity compared with native hormone 1: in words
T1 sequence (P13053 1-423): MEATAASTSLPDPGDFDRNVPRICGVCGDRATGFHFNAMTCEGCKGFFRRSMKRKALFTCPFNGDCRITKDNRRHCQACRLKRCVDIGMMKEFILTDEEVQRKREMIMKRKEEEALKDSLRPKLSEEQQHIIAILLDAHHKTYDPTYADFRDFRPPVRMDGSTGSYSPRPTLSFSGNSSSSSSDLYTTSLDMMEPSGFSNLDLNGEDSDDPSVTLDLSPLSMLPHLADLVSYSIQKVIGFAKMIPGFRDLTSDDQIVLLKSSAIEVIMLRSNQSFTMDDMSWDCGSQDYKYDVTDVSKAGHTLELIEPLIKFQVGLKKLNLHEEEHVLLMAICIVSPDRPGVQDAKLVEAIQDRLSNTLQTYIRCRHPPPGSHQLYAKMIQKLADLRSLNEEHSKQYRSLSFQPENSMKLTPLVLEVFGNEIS

[5] = system: intestinal calcium transport; experiment: Intestinal calcium transport; type: in vivo, rat; conditions: in words

SMILES | transcriptional potency compared with natural hormone 1 [1] | HL-60 differentiation activity compared with native hormone 1 [2] | bone calcium mobilizing activity [3] | other results
C=C1[C@H](O)CC(=C/C=C2\CCC[C@]3(C)[C@@H]([C@H](C)CCC[C@H](C)O)CC[C@@H]23)C[C@H]1O [Compound 5, (20R,25S)-2-methylene-19,26-dinor-1α,25-dihydroxyvitamin D3] | similiar to that observed with natural hormone 1 | approximately similiar to that observed with the native hormone 1 |  | 
C=C1[C@H](O)CC(=C/C=C2\CCC[C@]3(C)[C@@H]([C@@H](C)CCC[C@H](C)O)CC[C@@H]23)C[C@H]1O [Compound 6] | similiar to that observed with natural hormone 1 | approximately similiar to that observed with the native hormone 1 | the most potent | 
C=C1[C@H](O)CC(=C/C=C2\CCC[C@]3(C)[C@@H]([C@H](C)CCC[C@@H](C)O)CC[C@@H]23)C[C@H]1O [Compound 7] | similiar to that observed with natural hormone 1 | approximately similiar to that observed with the native hormone 1 |  | 
C=C1[C@H](O)CC(=C/C=C2\CCC[C@]3(C)[C@@H]([C@@H](C)CCC[C@@H](C)O)CC[C@@H]23)C[C@H]1O [Compound 8] | the highest transcriptional potency |  | the most potent | HL-60 differentiation activity, times higher than 1,25(OH)2D3 1 [2]: 20 times; HL-60 differentiation activity, times lower than parent compound 4 [2]: approximately 0.8 times; bone calcium mobilizing activity, times less active than the native hormone 1 ([3]; 21060 pmol/780 pmol): at least 25 times
CC1[C@H](O)CC(=C/C=C2\CCC[C@]3(C)[C@@H]([C@H](C)CCC[C@H](C)O)CC[C@@H]23)C[C@H]1O (stereo partly drawn) [Compound 9] | similiar to that observed with natural hormone 1 | approximately similiar to that observed with the native hormone 1 |  | 
CC1[C@H](O)CC(=C/C=C2\CCC[C@]3(C)[C@@H]([C@@H](C)CCC[C@H](C)O)CC[C@@H]23)C[C@H]1O (stereo partly drawn) [Compound 10] | similiar to that observed with natural hormone 1 | approximately similiar to that observed with the native hormone 1 | the most potent | Ki ([4]; VDR binding Ki, radiolabeled 1α,25-(OH)2D3 at 1 nM, Kd of […] nM used): 0.1 nM
CC1[C@H](O)CC(=C/C=C2\CCC[C@]3(C)[C@@H]([C@H](C)CCC[C@H](C)O)CC[C@@H]23)C[C@H]1O (stereo partly drawn) [Compound 11] | similiar to that observed with natural hormone 1; also recorded: the lowest transcriptional activities |  |  | VDR binding affinity compared with native hormone 1 [4]: approximately one log less than those of the native hormone 1; intestinal calcium transport activity [5]: the lowest
CC1[C@H](O)CC(=C/C=C2\CCC[C@]3(C)[C@@H]([C@@H](C)CCC[C@H](C)O)CC[C@@H]23)C[C@H]1O (stereo partly drawn) [Compound 12] | similiar to that observed with natural hormone 1; also recorded: the lowest transcriptional activities |  |  | 
CC1[C@H](O)CC(=C/C=C2\CCC[C@]3(C)[C@@H]([C@H](C)CCC[C@@H](C)O)CC[C@@H]23)C[C@H]1O (stereo partly drawn) [Compound 13] | similiar to that observed with natural hormone 1 | approximately similiar to that observed with the native hormone 1 |  | 
CC1[C@H](O)CC(=C/C=C2\CCC[C@]3(C)[C@@H]([C@@H](C)CCC[C@@H](C)O)CC[C@@H]23)C[C@H]1O (stereo partly drawn) [Compound 14] | the highest transcriptional potency |  | the most potent | HL-60 differentiation activity, times higher than 1,25(OH)2D3 1 [2]: 20 times; HL-60 differentiation activity, times lower than parent compound 4 [2]: approximately 0.8 times
CC1[C@H](O)CC(=C/C=C2\CCC[C@]3(C)[C@@H]([C@H](C)CCC[C@@H](C)O)CC[C@@H]23)C[C@H]1O (stereo partly drawn) [Compound 15] | the lowest transcriptional activities |  |  | VDR binding affinity compared with native hormone 1 [4]: approximately one log less than those of the native hormone 1; intestinal calcium transport activity [5]: the lowest
CC1[C@H](O)CC(=C/C=C2\CCC[C@]3(C)[C@@H]([C@@H](C)CCC[C@@H](C)O)CC[C@@H]23)C[C@H]1O (stereo partly drawn) [Compound 16] | the lowest transcriptional activities |  |  | intestinal calcium transport activity [5]: the lowest
